System: GH-release (serum GH-level)
Assay: Depression of serum GH-levels in male rats 1 hour after s.c. administration (radio-immuno-assay)
Format: in vivo, rat
Settings: blood taken 1 hour after administration
Description: This test is carried out employing male rats. The test-substance is administered at varying, logarithmically staggered doses employing at least 5 rats per dose. 1 hour after s.c. administration of the test substance blood is taken. The determination of the blood serum GH-level is effected by radio-immuno-assay.

For `C[C@H](N)C(=O)NCC(=O)N[C@H]1CSSC[C@@H](C(=O)O)NC(=O)[C@H](CO)NC(=O)[C@H]([C@@H](C)O)NC(=O)[C@H](Cc2ccccc2)NC(=O)[C@H]([C@@H](C)O)NC(=O)[C@H](CCCCN)NC(=O)[C@H](Cc2c[nH]c3ccccc23)NC(=O)[C@H](Cc2ccccc2)NC(=O)[C@H](Cc2ccccc2)NC(=O)[C@H](CC(N)=O)NC(=O)[C@H](CCCCN)NC1=O` [natural somatostatin, somatostatin], the “ID50 (amount of compound required to lower the GH content by 50% compared with untreated control animals)” value was 0.95 mg/kg.
